According to patent US20180064829A1, “FLUORESCENT BISPHOSPHONATE ANALOGS” (University of Southern California, priority 2015, published 2018):

What was measured:
[1] = parent compounds, ref. [23]; cited from earlier work
[2] = tested on: unprenylated Rap1A (uRap1A); details: PC analogues versus N-BPs; cited from earlier work
[3] = tested on: unprenylated Rap1A (uRap1A); test: Prenylation assay: Western blot for unprenylated Rap1A in J774.2 macrophages; assay type: cell-based, mouse; details: 10 or 100 μM, 24 h, FIG. 5A-C
Protocol: To determine the effect of fluorescent BP probes on protein prenylation, J774.2 mouse macrophages were plated out at 2×10^5 cells/mL in 24-well plates and left to adhere overnight. Cells were then treated with 10 or 100 μM of fluorescent analogues of RIS, dRIS, and ZOL, the respective native BP, or vehicle, for 24 h. Cells were lysed in radioimmunoprecipitation buffer, and proteins were separated by sodium dodecyl sulfate polyacrylamide gel electrophoresis and transferred to polyvinyl difluoride membranes by western blotting. Membranes were then incubated with antibodies to the unprenylated form of Rap1A (uRap1A) and the housekeeping protein β-actin, which were detected by incubation with fluorescently-labeled secondary antibodies and scanning of membranes on a LI-COR Infrared Imager. Results shown are representative of 2 independent experiments. The ratio between abundance of unprenylated RaplA and β-actin is indicated for each sample below the blots in FIG. 5.

[4] = UV-VIS absorption and fluorescence emission spectra; assay type: physicochemical; details: 0.1M phosphate buffer (1x PBS for 7d5); ± 1 nm error
Protocol: All labeled samples were dissolved in water and diluted with 0.1 M phosphate buffer or 1×PBS (for 7d5). Assuming that the labeled bisphosphonates have the same extinction coefficient (E) as the carboxylic acid of the free fluorescent label, the final concentrations for all labeled products were calculated from UV-VIS absorption spectra at λ=493 nm (ε=73000 M^−1 cm^−1 at pH 7.2) for FAM conjugates (7a1-7a3, 7b1, 7c1, 7d1-7d2, 7e1-7e2, 7f1-7f2), λ=567.5 nm (ε=114850 M^−1cm^−1 at pH 7.5) for RhR-X conjugates (7a4, 7b2, 7c2), λ=580 nm (c=72000 M^−1cm^−1 at pH 8.0) for ROX conjugates (7a5, 7b3), λ=648 nm (ε=240000 M^−1cm^−1 at pH 7.2) for AF647 conjugates (7a6, 7b4, 7d3), λ=774 nm (ε=240000 M^−1cm^−1 at pH 7.4) for 800CW conjugates (7d4), λ=644 nm (ε=271000 M^−1cm^−1 at pH 7.4, 1×PBS) for Sulfo-Cy5 conjugates (7d5).
Emission spectra for FAM and RhR-X conjugates were recorded using an excitation wavelength of 490 nm or 520 nm, respectively. Emission spectra for AF647 conjugates and Sulfo-Cy5 conjugates were recorded using an excitation wavelength of 600 nm. Emission spectra of 5(6)-ROX conjugates were recorded using an excitation wavelength of 575 nm. Emission spectra of IRDye CW800 conjugate was recorded using an excitation wavelength of 750 nm. The set-up of excitation slit, emission slit, integration time and increment were determined to get optimal spectra for each compound respectively, depending on the sample concentration and spectrometer used.

[5] = Hydroxyapatite (HAP) column chromatography binding assay; details: pH 6.8, phosphate gradient 1 to 1000 mM; FIG. 3
Protocol: The fast performance liquid chromatography (FPLC) system consisted of a Waters 650E advanced protein purification system (Millipore Corp., Waters chromatography division, Milford, Mass.), a 600E system controller and a 484 tunable absorbance detector for UV absorbance assessment. Ceramic hydroxyapatite [HAP, […], Macro-Prep® Ceramic Hydroxyapatite Type II 20 μm 100 g, Bio-Rad Laboratories, Inc. Hercules, Calif.] was equilibrated with 1 mM phosphate buffer (pH 6.8) and packed in a 0.66 cm (diameter)×6.5 cm (length) glass column (Omnifit, Bio-chem Valve™ inc., Cambridge, U.K.), which was attached to the Waters 650E advanced protein purification system. Each sample was prepared in 1 mM potassium phosphate buffer, and 100 μL of 1 mM (0.1 μmol) sample was injected into the FPLC system. As a consequence, the compounds were absorbed and subsequently eluted at a flow rate of 2 ml/min by using a linear concentration gradient of phosphate from 1 to 1000 mM at pH 6.8. Fractions of each sample were collected in 80 tubes using an automated fraction collector (Gilson, France) and then used for subsequent ultraviolet (SPECTRAmax PLUS 384, Molecular Devices, CA) or fluorescence spectrometry detection (WALLAC VICTOR™, 1420 MULTILABEL COUNTER, Perkin Elmer, USA). […] The elution profile for each sample was determined in triplicate for statistical analysis (Prism, GraphPad Software, USA). […]

J774.2 macrophages = test: J774.2 cell viability assay (AlamarBlue); assay type: cell-based, mouse; details: J774.2 macrophages, 10, 100 or 500 μM, 48 h; FIG. 5D-F
Protocol: To determine the effect of fluorescent BP analogues on cell viability, J774.2 mouse macrophages were plated at 2×10^5 cells/mL in 96-well plates and left to adhere overnight. Cells were then treated with 10, 100 or 500 μM of fluorescent analogues of RIS, dRIS, and ZOL, the respective native BP, or vehicle, for 48 h. At the end of the incubation period, AlamarBlue reagent was added to each well and incubation continued for a further 3 h. Fluorescence was detected on a plate reader, and expressed as percent of vehicle control. Results are shown as mean±SD of ≧2 independent experiments, performed at least in duplicate.

[6] = pH 7.0, 0.1M phosphate buffer; assumed the same as the corresponding fluorescent dye; cited from earlier work

Compound | rank order of mineral binding affinity [1] | activity in uRap1A and J774.2 cell viability screening assays [2] | accumulation of unprenylated Rap1A (anti-prenylation activity) [3] | Maximum absorption wavelength (λmax (abs), nm) [4] | Maximum emission wavelength (λmax (em), nm) [4] | HAP binding affinity (retention time on HAP column, normalized to RIS) [5] | viable cell number (J774.2 macrophages) | Extinction coefficient [6]
O=C(O)C(O)(Cc1cccnc1)P(=O)(O)O (stereo not shown) [RISPC, 2-hydroxy-2-phosphono-3-pyridin-3-ylpropanoic acid] | RIS>dRIS>RISPC | much less active than the N-BPs | – | – | – | – | – | –
CC1(C)C(C=CC=CC=C2N(CCCS(=O)(=O)O)c3ccc(S(=O)(=O)O)cc3C2(C)CCCCCC(=O)NCC(O)C[n+]2cccc(CC(O)(P(=O)(O)O)P(=O)(O)O)c2)=[N+](CCCS(=O)(=O)O)c2ccc(S(=O)(=O)O)cc21 (stereo not shown) [AF647-RIS, 2-(5-(3-(6-((2-hydroxy-3-(3-(2-hydroxy-2,2-diphosphonoethyl)pyridin-1-ium-1-yl)propyl)amino)-6-oxohexyl)-3-methyl-5-sulfo-1-(3-sulfopropyl)indolin-2-ylidene)penta-1,3-dien-1-yl)-3,3-dimethyl-5-sulfo-1-(3-sulfopropyl)-3H-indol-1-ium] | – | – | did not show accumulation of unprenylated Rap1A | 648 nm | 666 nm | largest relative decrease of HAP affinity compared to other fluorescent RIS conjugates, but still retains strong absolute binding affinity | modest decreases in viable cell number at high concentrations | 240,000 (pH 7.0) M^−1cm^−1
CC1(C)C(/C=C/C2=C(Oc3ccc(S(=O)(=O)O)cc3)C(=C/C=C3/N(CCCCS(=O)(=O)[O-])c4ccc(S(=O)(=O)[O-])cc4C3(C)C)/CCC2)=[N+](CCCCCC(=O)NCC(O)C[n+]2ccn(CC(O)(P(=O)(O)O)P(=O)(O)O)c2)c2ccc(S(=O)(=O)O)cc21 (stereo not shown) [Compound 800CW-ZOL, (E)-2-((E)-2-(3-((E)-2-(1-(6-((2-hydroxy-3-(1-(2-hydroxy-2,2-diphosphonoethyl)-1H-imidazol-3-ium-3-yl)propyl)amino)-6-oxohexyl)-3,3-dimethyl-5-sulfo-3H-indol-1-ium-2-yl)vinyl)-2-(4-sulfophenoxy)cyclohex-2-en-1-ylidene)ethylidene)-3,3-dimethyl-1-(4-sulfonatobutyl)indoline-5-sulfonate] | – | – | did not show accumulation of unprenylated Rap1A | 774 nm | 789 nm | – | modest decreases in viable cell number at high concentrations | 240,000 (pH 7.0) M^−1cm^−1
